Assay results taken from patent US20110104159A1, “COMPOSITIONS AND METHODS FOR TREATING, CONTROLLING, REDUCING, AMELIORATING, OR PREVENTING ALLERGY” (priority 2006, published 2011).
Where “and” joins values, the source holds several entries; their conditions need not be identical. Equal entries are not always repeated. Where two headings read alike, the source gives them in different places.

Tests used:
[1] = conditions similar to the in vitro models used [28]; cited from earlier work
[2] = tested on: monkey trabecular meshwork cells; settings: monkey trabecular meshwork cells [28]; cited from earlier work
[3] = tested on: human HMC-1 cells; test: Ionomycin-induced cytokine/chemokine release in HMC-1 cells (Luminex); format: cell-based; settings: HMC1, 18 h after ionomycin, 95% confidence limits in brackets
Method: A human mast cell line (HMC-1), a kind gift from Prof.
After 18 h stimulation at 37° C. in a 5% CO2 atmosphere, Interleukin-8 (IL-8) was measured in supernatants obtained from […] with a commercial ELISA kit from R&D Systems. The threshold sensitivity was 5 pg/ml and the inter- and intra-assay variations were less than 5%. The supernatants obtained from HMC-1 cells were aliquoted in duplicates for interleukin-6 (IL-6), IL-8, chemokine (C-C motif) ligand 5 (CCL5)/regulated upon activation, normal T-cell expressed and secreted (RANTES) and tumor necrosis factor-α (TNF-α) analysis using a high-throughput multiplex Luminex technology (Luminex 200 System; Luminex, Austin, Tx, USA) and Beadview software version 1.0 (Upstate Cell Signaling Solutions, Temecula, Calif.). Standard curves for known concentrations of recombinant human cytokines were used to convert median fluorescence intensities to cytokine concentrations in pg/ml. Only the linear portions of the standard curves were used to quantify cytokine concentrations, and in instances where the fluorescence reading exceeded the linear range of the standard curve, an appropriate dilution was performed to ensure that the concentration was in the linear portion of the curve.
The effect of BOL-303242-X on secretion of the reported cytokines and chemokines, 18 h after ionomycin ([…]) stimulation of HMC-1 cells, was determined in comparison to dexamenthasone. Compounds (1 nM-1000 nM) were added 45 min before ionomycin. Values were calculated by analyzing at least three separated experiments where concentration-response curves were measured. ^a95% Confidence limits.

[4] = tested on: rabbit paracentesis model; test: Rabbit paracentesis model of ocular inflammation (overall conclusion); format: in vivo; settings: 0.1%, 0.5% and 1% topical; preliminary conclusion
Text: Inflammatory processes are multidimensional in origin, and are characterized by complex cellular and molecular events involving numerous components all of which have not been identified. Prostaglandins are among these mediators and play an important role in certain forms of ocular inflammation. Paracentesis of the anterior chamber in the rabbit eye induces inflammatory reaction due to the disruption of the blood-aqueous barrier (“BAB”), which is mediated, at least in part, by prostaglandin E2 [References 1-3 below]. Intraocular or topical administration of PGE2 disrupts the BAB. [Reference 4, below] The treatment schedule adopted in this study was similar to the clinical NSAIDs (Ocufen) treatment schedule used by surgeons for patients before cataract surgery.
Each rabbit was placed in a restraint device and tagged with the alphanumeric code. The formulations were instilled (50 μl) into the conjunctival sac of both eyes 180, 120, 90 and 30 min before the first paracentesis; then 15, 30, 90 min after the first paracentesis. To perform the first paracentesis the animals were anaesthetized by intravenous injection of 5 mg/kg Zoletil® (Virbac; 2.5 mg/kg tiletamine HCl and 2.5 mg/kg zolazepam HCl) and one drop of local anesthetic (Novesina®, Novartis) was administered to the eye. […]

[5] = tested on: rabbit paracentesis model; test: Pupillary diameter measurement, rabbit paracentesis model; format: in vivo; settings: for Pupillary diameter T2: −5 min: 5 min before first paracentesis; for Pupillary diameter T2: −5 min / Pupillary diameter T3: +115 min / Pupillary diameter Δ(T3 − T1) / Pupillary diameter T1: −180 min: individual eye, listed as BOL; for Pupillary diameter T3: +115 min: 5 min before second paracentesis; for Pupillary diameter Δ(T3 − T1): +115 min minus −180 min; for Pupillary diameter T1: −180 min: basal; for Mean (mm) Δ(T3 − T1) of pupillary diameter: group mean, n=8 eyes
Method: (§1) Each rabbit was placed in a restraint device and tagged with the alphanumeric code. The formulations were instilled (50 μl) into the conjunctival sac of both eyes 180, 120, 90 and 30 min before the first paracentesis; then 15, 30, 90 min after the first paracentesis. To perform the first paracentesis the animals were anaesthetized by intravenous injection of 5 mg/kg Zoletil® (Virbac; 2.5 mg/kg tiletamine HCl and 2.5 mg/kg zolazepam HCl) and one drop of local anesthetic (Novesina®, Novartis) was administered to the eye. Anterior chamber paracentesis was performed with a 26 G needle attached to a tuberculin syringe; the needle was introduced into the anterior chamber through the cornea, taking care not to damage the tissues. Two hours after the first paracentesis, the animals were sacrificed with 0.4 ml Tanax® (Intervet International B.V.) and the second paracentesis was performed. About 100 μl of aqueous humor were removed at the second paracentesis. Aqueous humor was immediately split in four aliquots and stored at −80° C. until analysis. Then both eyes were enucleated and the iris-ciliary body was carefully excised, placed in polypropylene tubes, and stored at −80° C. until analysis.
The pupillary diameter of both eyes was measured with a Castroviejo caliper 180 min and 5 min before the first paracentesis and 5 min before the second paracentesis.

[6] = tested on: protein concentration in the aqueous humor; test: Protein measurement in aqueous humor; format: in vivo, Rabbit; settings: for Protein in aqueous humor at the second paracentesis, Mean: group mean; for Protein in aqueous humor at the second paracentesis: individual eye sample, listed as BOL
Method: as §1
For protein concentration determination in the aqueous humor we used the Protein Quantification Kit (Fluka; Cat. No. 77371; Lot. No. 1303129). Five microliters of aqueous humor were diluted to 100 μl with water. Twenty microliters of samples and of standards were load into a 96-well plate and recorded in a plate layout. Samples were treated following the assay procedure described in the kit. A microplate reader (GDV, Italy; model DV 990 B/V6) set at 670 nm was used for making the calibration and analyzing the samples.

[7] = tested on: murine thymocyte line S49; settings: murine thymocyte line S49 [26]; cited from earlier work
[8] = tested on: PGE2; test: Prostaglandin E2 (PGE2) measurement in aqueous humor; format: in vivo, Rabbit; settings: for PGE2 in aqueous humor at the second paracentesis, Mean: group mean; for PGE2 in aqueous humor at the second paracentesis: individual eye sample, listed as BOL; for PGE2 in aqueous humor, statistical comparison with CTR: p<0.05
Method: as §1
For the quantitative determination of PGE2 in the aqueous humor we used the PGE2 Immunoassay kit (R&D Systems; Cat. No. KGE004; Lot. No. 240010). Eleven microliters or 16 μl of aqueous humor were diluted to 110 μl or 160 μl with the calibrator diluent solution provided with the kit. One hundred microliters of samples and of standards were load into a 96-well plate and recorded in a plate layout. Samples were treated following the assay procedure described in the kit. A microplate reader (GDV, Italy; model DV 990 B/V6) set at 450 nm (wavelength correction at 540 nm) was used for making the calibration and analyzing the samples.

[9] = tested on: normotensive rabbits; settings: topical eye drops, normotensive rabbits [27]; cited from earlier work

Cc1ccc2c(NC[C@](O)(CC(C)(C)c3cc(F)cc4c3OCC4)C(F)(F)F)cccc2n1 [BOL-303242-X, (R)-1,1,1-Trifluoro-4-(5-fluoro-2,3-dihydrobenzofuran-7-yl)-4-methyl-2-{[(2-methyl-5-quinolyl)amino]methyl}pentan-2-ol]
Stability of the compound [1]: stable
Agonism in increasing myocilin expression [2]: partial glucocorticoid receptor agonist
IC50 ([3]; read-out: IC50 (nM), CCL5/RANTES release induced by ionomycin): 88.7 nM
IC50 ([3]; read-out: IC50 (nM), Interleukin-6 release induced by ionomycin): 83.2 nM
IC50 ([3]; read-out: IC50 (nM), Interleukin-8 release induced by ionomycin): 66.5 nM
IC50 ([3]; read-out: IC50 (nM), TNF-α release induced by ionomycin): 43.8 nM
Activity in the rabbit paracentesis model [4]: active in this model
Pupillary diameter T2: −5 min ([5]; 0.1% topical): 6.5 mm (3×) and 7.0 mm (4×) and 7.5 mm
Pupillary diameter T3: +115 min ([5]; 0.1% topical): 5.0 mm (2×) and 6.0 mm (3×) and 6.5 mm and 5.5 mm (2×)
Pupillary diameter Δ(T3 − T1) ([5]; 0.1% topical): −1.5 mm (4×) and −0.5 mm (2×) and −1.0 mm (2×)
Pupillary diameter T1: −180 min ([5]; 0.1% topical): 6.5 mm (4×) and 7.0 mm (3×) and 7.5 mm
Pupillary diameter T2: −5 min ([5]; 0.5% topical): 8.0 mm (3×) and 7.0 mm (4×) and 7.5 mm
Pupillary diameter T3: +115 min ([5]; 0.5% topical): 6.5 mm (4×) and 6.0 mm (2×) and 7.0 mm (2×)
Pupillary diameter Δ(T3 − T1) ([5]; 0.5% topical): −1.5 mm (2×) and −0.5 mm (2×) and −1.0 mm (4×)
Pupillary diameter T1: −180 min ([5]; 0.5% topical): 8.0 mm (3×) and 7.0 mm (3×) and 7.5 mm (2×)
Mean (mm) Δ(T3 − T1) of pupillary diameter ([5]; 0.5% topical): −1.0 mm
Pupillary diameter T2: −5 min ([5]; 1% topical): 6.0 mm (2×) and 6.5 mm (4×) and 7.0 mm (2×)
Pupillary diameter T3: +115 min ([5]; 1% topical): 5.5 mm (2×) and 5.0 mm (4×) and 6.0 mm (2×)
Pupillary diameter Δ(T3 − T1) ([5]; 1% topical): −0.5 mm (3×) and −1.5 mm (2×) and −1.0 mm (3×)
Pupillary diameter T1: −180 min ([5]; 1% topical): 6.0 mm (3×) and 6.5 mm (5×)
Mean (mm) Δ(T3 − T1) of pupillary diameter ([5]; 1% topical): −0.9 mm
Protein in aqueous humor at the second paracentesis, Mean ([6]; 0.1% topical): 33.667 mg/mL
Protein in aqueous humor at the second paracentesis ([6]; 0.1% topical): 34.87 mg/mL and 34.41 mg/mL and 31.14 mg/mL and 22.82 mg/mL and 29.46 mg/mL and 31.69 mg/mL and 35.70 mg/mL and 49.25 mg/mL
Protein in aqueous humor at the second paracentesis, Mean ([6]; 0.5% topical): 28.844 mg/mL
Protein in aqueous humor at the second paracentesis ([6]; 0.5% topical): 33.98 mg/mL and 33.65 mg/mL and 19.99 mg/mL and 27.11 mg/mL and 19.72 mg/mL and 36.35 mg/mL and 27.71 mg/mL and 32.24 mg/mL
Protein in aqueous humor, statistical comparison with CTR ([6]; 0.5% topical, p<0.05): statistical significance
Protein in aqueous humor at the second paracentesis, Mean ([6]; 1% topical): 21.435 mg/mL
Protein in aqueous humor at the second paracentesis ([6]; 1% topical): 20.99 mg/mL and 21.48 mg/mL and 15.11 mg/mL and 20.28 mg/mL and 20.94 mg/mL and 21.89 mg/mL and 20.03 mg/mL and 30.76 mg/mL
Protein in aqueous humor, statistical comparison with CTR ([6]; 1% topical, p<0.001): statistical significance
Induction of apoptosis in thymocytes [7]: does not induce apoptosis
PGE2 in aqueous humor at the second paracentesis, Mean ([8]; 0.1% topical): 1.452 ng/mL
PGE2 in aqueous humor at the second paracentesis ([8]; 0.1% topical): 1.62 ng/mL and 1.88 ng/mL and 2.15 ng/mL and 0.70 ng/mL and 1.34 ng/mL and 1.03 ng/mL
PGE2 in aqueous humor, statistical comparison with CTR ([8]; 0.1% topical): statistically significant versus CTR
PGE2 in aqueous humor at the second paracentesis, Mean ([8]; 0.5% topical): 1.384 ng/mL
PGE2 in aqueous humor at the second paracentesis ([8]; 0.5% topical): 2.31 ng/mL and 2.59 ng/mL and 0.53 ng/mL and 0.75 ng/mL and 0.80 ng/mL and 1.62 ng/mL and 1.09 ng/mL
PGE2 in aqueous humor, statistical comparison with CTR ([8]; 0.5% topical): statistically significant versus CTR
PGE2 in aqueous humor at the second paracentesis, Mean ([8]; 1% topical): 2.168 ng/mL
PGE2 in aqueous humor at the second paracentesis ([8]; 1% topical): 0.50 ng/mL and 1.87 ng/mL and 1.71 ng/mL and 4.04 ng/mL and 1.11 ng/mL and 3.78 ng/mL
Ability to increase intraocular pressure compared to dexamethasone [9]: reduced ability to increase intraocular pressure
